Values joined by “and” are separate entries in the source; they are usually repeats but may differ in a detail not shown here. Equal entries are not always repeated.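 These data come from cells grown in 96-well plates and exposed to compound for 48 hours at five concentrations. GI50 = concentration required for 50% inhibition of growth. TGI: concentration producing complete growth inhibition.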
What was measured:
Assay in all cases: NCI tumour cell line growth inhibition, 48 h
A549 NSCLC = system: A549 NSCLC
ACHN renal = system: ACHN renal
BT-549 breast = system: BT-549 breast
CAKI-1 renal = system: CAKI-1 renal
EKVX NSCLC = system: EKVX NSCLC
HT29 colon = system: HT29 colon
KM12 colon = system: KM12 colon
PC-3 prostate = system: PC-3 prostate
SK-MEL-2 melanoma = system: SK-MEL-2 melanoma
SK-MEL-28 melanoma = system: SK-MEL-28 melanoma
SR leukemia = system: SR leukemia
T-47D breast = system: T-47D breast
TK-10 renal = system: TK-10 renal
UACC-257 melanoma = system: UACC-257 melanoma
UACC-62 melanoma = system: UACC-62 melanoma
SNB-75 CNS = system: SNB-75 CNS

SMILES	TGI (A549 NSCLC)	TGI (ACHN renal)	TGI (BT-549 breast)	TGI (CAKI-1 renal) [µM]	TGI (EKVX NSCLC)	TGI (HT29 colon)	TGI (KM12 colon) [µM]	TGI (PC-3 prostate)	TGI (SK-MEL-2 melanoma) [µM]	TGI (SK-MEL-28 melanoma)	TGI (SR leukemia)	TGI (T-47D breast)	TGI (TK-10 renal)	TGI (UACC-257 melanoma)	TGI (UACC-62 melanoma)	TGI (SNB-75 CNS)	GI50 (A549 NSCLC)	GI50 (EKVX NSCLC)	GI50 (SNB-75 CNS)	GI50 (TK-10 renal)
c1ccc(-c2sc(-c3ccccc3)c3c2C2CCC3C2)cc1	> 100 µM	> 100 µM	> 100 µM	> 100	> 100 µM	34.5 µM	> 100	72.6 µM	39.5	> 100 µM	56.8 µM	> 100 µM	89.7 µM	> 100 µM	> 100 µM					
Cc1ccc(N(C)S(=O)(=O)c2ccccc2)cc1	> 100 µM	> 100 µM	> 100 µM	> 100	> 100 µM	> 100 µM	> 100	> 100 µM	> 100	> 100 µM	> 100 µM	> 100 µM	> 100 µM	> 100 µM	> 100 µM	> 100 µM				
Cc1ccc(O)c(-c2cc(-c3ccccc3)nc(/N=C\c3ccccc3)n2)c1	> 100 µM	29.8 µM	19.2 µM		> 100 µM	> 100 µM	> 100	> 100 µM	> 100	> 100 µM	> 100 µM	> 100 µM	> 100 µM	> 100 µM	48.6 µM	40.9 µM				
COc1cc(CC(C)N[C@@H](C)c2ccccc2)cc(OC)c1 (some centres not stated)	27.1 µM and > 100 µM	21.1 µM and > 100 µM	20.4 µM and > 100 µM	> 100	26.4 µM and > 100 µM	13.1 µM and > 100 µM	> 100	14.2 µM and > 100 µM	> 100	11.9 µM and > 100 µM	15.2 µM and > 100 µM	18.3 µM and > 100 µM	24.7 µM and > 100 µM	19.5 µM and > 100 µM	19.8 µM and > 100 µM	12.9 µM and > 100 µM	13 µM and > 100 µM	12.2 µM and > 100 µM	2.9 µM and 24.7 µM	12.2 µM and 53.8 µM
O=[N+]([O-])c1ccc(OP(=O)(O)OCC2OC(CP(=O)(O)O)C(O)C2O)cc1 (configuration not stated)	> 100 µM	> 100 µM	> 100 µM	> 100	> 100 µM	> 100 µM	> 100	> 100 µM	> 100	> 100 µM	> 100 µM	> 100 µM	> 100 µM	> 100 µM	> 100 µM					
N=C1/C(=C/c2ccccc2)C(=O)N=C2SC=NN12	> 100 µM	> 100 µM	> 100 µM	> 100	> 100 µM	> 100 µM	> 100	> 100 µM	> 100	> 100 µM	> 100 µM	> 100 µM	> 100 µM	> 100 µM	> 100 µM	> 100 µM				
Nc1nc(Cl)cc(NCC2(CO)CC(c3ccccc3)C2)n1 (configuration not stated)	> 100 µM	> 100 µM	> 100 µM	> 100	84.5 µM	> 100 µM	> 100	> 100 µM	> 100	> 100 µM	> 100 µM	> 100 µM	> 100 µM	> 100 µM	> 100 µM	> 100 µM				
O=C(Nc1sccc1S(=O)(=O)c1ccc(Cl)cc1)c1ccc(Cl)cc1Cl	> 100 µM	> 100 µM	> 100 µM	> 100	> 100 µM	> 100 µM	> 100	> 100 µM	> 100	> 100 µM	> 100 µM	> 100 µM	> 100 µM	> 100 µM	> 100 µM	> 100 µM				
CCCC1=NC(C(F)(F)F)(C(F)(F)F)N=C(N2CCOCC2)O1	> 100 µM		> 100 µM	> 100	> 100 µM	> 100 µM	> 100	> 100 µM	> 100	> 100 µM	> 100 µM	> 100 µM	> 100 µM	> 100 µM	> 100 µM	> 100 µM				
C=CCC1(O)C(=O)OC2C(O)COC21O (configuration not stated)	> 100 µM	> 100 µM	> 100 µM	> 100	> 100 µM	> 100 µM	> 100	> 100 µM	> 100	> 100 µM	> 100 µM	> 100 µM	> 100 µM	> 100 µM	> 100 µM	> 100 µM				
N=c1oc2ccc([N+](=O)[O-])cc2cc1C(=O)Nc1ccccn1	> 100 µM	> 100 µM	> 100 µM	> 100	> 100 µM	> 100 µM	> 100	43.9 µM	43.4	> 100 µM	> 100 µM	> 100 µM		> 100 µM	> 100 µM	> 100 µM				
CCn1c(SCC(=O)NNC(=S)Nc2ccc(Cl)cc2)nc2ccccc2c1=O	> 100 µM	> 100 µM	> 100 µM	> 100	> 100 µM		> 100	> 100 µM	> 100	> 100 µM	> 100 µM	83 µM	> 100 µM	> 100 µM	> 100 µM	> 100 µM				
c1csc(-c2cscc2-c2cccs2)c1	> 100 µM	> 100 µM	> 100 µM	> 100	> 100 µM	> 100 µM	> 100	39.9 µM		> 100 µM	> 100 µM	> 100 µM	> 100 µM	> 100 µM	> 100 µM	> 100 µM				
Clc1ccc(/C=C/c2nc(-c3ccc(Cl)cc3)cn3c2nc2ccccc23)cc1	> 100 µM	> 100 µM	> 100 µM		> 100 µM	> 100 µM	> 100	> 100 µM	> 100	> 100 µM	> 100 µM	> 100 µM	> 100 µM	> 100 µM	> 100 µM					
CC(=O)N1N=C(c2ccc3ccccc3c2O)CC1c1ccc(Cl)cc1Cl (configuration not stated)	> 100 µM	> 100 µM	> 100 µM	> 100		> 100 µM	> 100	> 100 µM	> 100	> 100 µM	> 100 µM	> 100 µM	> 100 µM	> 100 µM	> 100 µM	> 100 µM				
Cc1cc(CN(Cc2ccccc2)Cc2nc3ccccc3[nH]2)c(O)c(CN(Cc2nc3ccccc3[nH]2)Cc2nc3ccccc3[nH]2)c1	> 95.1 µM		18.3 µM	> 100	99.1 µM	> 69.6 µM	30.5	60.6 µM	36.1	> 100 µM	> 25.3 µM	> 69.5 µM	> 67.9 µM	23.1 µM	18.5 µM	> 72.3 µM				
COC(=O)c1ccc(-n2c(C)nc(=O)c(-c3ccccc3)c2C)cc1	> 100 µM	> 100 µM	> 100 µM	> 100	> 100 µM	> 100 µM	> 100	> 100 µM	> 100	> 100 µM	> 100 µM	> 100 µM	> 100 µM	> 100 µM		> 100 µM				
COc1cc(CCC(=O)O)c2cc3ccccc3cc2c1O	52.6 µM	32.2 µM	30.9 µM	33.8	53.1 µM	43.8 µM	44.1	47.6 µM	36.6	48.4 µM	33.1 µM	36.3 µM	75.1 µM	31 µM	37.7 µM					
c1ccc(N=C2C(=Nc3ccccc3)N(C3CCCCC3)C(=NC3CCCCC3)N2c2ccccc2)cc1	> 100 µM	> 100 µM	> 100 µM		> 100 µM	> 100 µM	> 100	> 100 µM	> 100	> 100 µM	> 100 µM	> 100 µM	> 100 µM	> 100 µM		> 100 µM				
CC(=O)N1N=C(c2ccccc2Nc2ccccc2C2=NN(C(C)=O)C(c3ccccc3)O2)OC1c1ccccc1 (configuration not stated)	> 100 µM	> 100 µM	> 100 µM		> 100 µM	> 100 µM		> 100 µM	> 100	> 100 µM	> 100 µM	> 100 µM	> 100 µM		> 100 µM					
N#CC12CC=C(c3ccccc3)N=C1NC(c1ccccc1)=CC2 (configuration not stated)	> 100 µM	> 100 µM	> 100 µM		> 100 µM	> 100 µM	> 100	> 100 µM	> 100	> 100 µM	82.2 µM	> 100 µM	> 100 µM	> 100 µM	> 100 µM	> 100 µM				
O=S(=O)(c1ccccc1)[C@@H]1[C@H]2C=C[C@](CS)(O2)[C@H]1S(=O)(=O)c1ccccc1	> 100 µM	> 100 µM	> 100 µM	92.3	> 100 µM	> 100 µM	> 100	> 100 µM		> 100 µM	> 100 µM	> 100 µM	> 100 µM	> 100 µM	> 100 µM	> 100 µM				
CC(C)CC(NC=O)C(=O)NC(Cc1ccccc1)NC(=O)CNC(=O)C(C)NC(=O)OC(C)(C)C (configuration not stated)	> 100 µM	> 100 µM	> 100 µM	> 100	> 100 µM	> 100 µM	> 100	> 100 µM		> 100 µM	> 100 µM	> 100 µM	> 100 µM		> 100 µM	> 100 µM				
O=C(OCC(Cl)(Cl)Cl)N1CC[C@@H](C2CCCCC2)C1	> 100 µM	49.7 µM	> 100 µM	76.5	51.7 µM		31.8	46.3 µM	33.1		69.4 µM	> 100 µM	> 100 µM	> 100 µM	85.5 µM	48.7 µM				
Cc1ccc(S(=O)(=O)N/N=C2/C3C(CC2(C)C)C2(C)CCCC3(C)C2O)cc1 (configuration not stated)	63.7 µM		31 µM	> 100	> 100 µM	39.6 µM	35.1	29.7 µM	45.8	40.4 µM	> 100 µM	54.5 µM	> 100 µM	33.3 µM	30 µM	39.3 µM				
c1ccc2c(c1)ccc1nc3ccccn3c12	> 100 µM	> 100 µM	> 100 µM		> 100 µM	> 100 µM	> 100	> 100 µM		> 100 µM	> 100 µM	> 100 µM	> 100 µM	> 100 µM	> 100 µM	> 100 µM				
CCNC(=S)Nc1c(C#N)c2n(c1C(=O)OCC)CCCCC2		> 100 µM	> 100 µM	> 100	> 100 µM	> 100 µM	> 100	> 100 µM	> 100	> 100 µM	> 100 µM	> 100 µM	> 100 µM	> 100 µM	> 100 µM	> 100 µM				
C[C@]12CC[C@H]3[C@@H](CC=C4C[C@@H](O)CC[C@@]43C)[C@@H]1C[C@H](N1CCOCC1)[C@@H]2O	> 100 µM	> 100 µM	> 100 µM	> 100	> 100 µM	> 100 µM	> 100	> 100 µM	> 100	> 100 µM		> 100 µM	> 100 µM	> 100 µM	> 100 µM	97.4 µM				
O=CN1CCN(C(=O)c2ccc(Cl)cc2)C1=S	28 µM	31 µM	69.2 µM	27	29 µM	33 µM	25.2	32.1 µM	36	39.6 µM		36.4 µM	28.2 µM	33.7 µM	29.3 µM	36.8 µM				
O=C(Nc1ccccc1)c1cc2c(cc1Cl)SC(NNCCO)=NS2(=O)=O		> 100 µM	> 100 µM	> 100	> 100 µM	> 100 µM	> 100	> 100 µM	> 100	> 100 µM	> 100 µM	> 100 µM	> 100 µM	> 100 µM	> 100 µM	> 100 µM				
